Source: ChEMBL document CHEMBL6087385, “Synthesis and biological evaluation of Ribo 7-N/O/S pyrimidine 9-deaza C-nucleoside analogs as new antiviral agents for inhibiting HCV RNA-dependent RNA polymerases” (Eur J Med Chem, 2024)

Tests used:
Hepatitis C virus [1] = assay: Antiviral activity against HCV genotype 1a infected in GLuc-1 cells; assay type: functional, organism-based, Hepacivirus hominis
[2] = Toxicity in rat assessed as effect on respiratory endpoint at 1 to 9 mg/kg, po; assay type: organism-based; details: in vivo, dose 1-9 mg/kg
Hepatitis C virus [3] = assay: Anti-viral activity against HCV genotype 1b infected in human Huh-luc cells; assay type: functional, organism-based, Hepacivirus hominis
[4] = Toxicity in Cynomolgus monkey assessed as animal death at 100 mg/kg, po administered twice a day; assay type: organism-based, Macaca fascicularis; details: in vivo
[5] = Drug metabolism in human Huh-luc/neo cells assessed as triphosphate metabolite formation at 10 uM measured after 24 hrs by HPLC-MS analysis; assay type: ADME, cell-based
[6] = Toxicity in Sprague-Dawley rat assessed as lethargy at 100 mg/kg, po administered as single dose and measured after 14 days; assay type: organism-based; details: in vivo, 336 h, time 14 day
[7] = Toxicity in Sprague-Dawley rat assessed as anogenital staining at 250 mg/kg, po administered as single dose and measured after 14 days; assay type: organism-based; details: in vivo, 336 h, time 14 day
[8] = AUC (0 to infinity) in Cynomolgus monkey at 10 mg/kg, po administered for 7 days by reverse phase chromatography; assay type: ADME, organism-based, Macaca fascicularis; details: in vivo, time 7 day
[9] = AUC in Sprague-Dawley rat at 10 mg/kg, po by reverse phase chromatography; assay type: ADME, organism-based; details: in vivo
[10] = Cmax in Cynomolgus monkey at 10 mg/kg, po administered for 7 days by reverse phase chromatography; assay type: ADME, organism-based, Macaca fascicularis; details: in vivo, time 7 day
[11] = Metabolic stability in rat liver microsome assessed as half life in presence of NADPH; assay type: ADME; details: liver microsomes
[12] = Toxicity in dog assessed as effect on […] function at 1 to 5 mg/kg, po administered for 3 hr post dose by electrocardiogram analysis; assay type: organism-based, Canis lupus familiaris; details: in vivo, dose 1-5 mg/kg
[13] = Tmax in Cynomolgus monkey at 10 mg/kg, po administered for 7 days by reverse phase chromatography; assay type: ADME, organism-based, Macaca fascicularis; details: in vivo, time 7 day
[14] = Metabolic stability in human liver microsome assessed as half life in presence of NADPH; assay type: ADME; details: liver microsomes
[15] = Toxicity in Sprague-Dawley rat assessed as eyes and nares staining at 250 mg/kg, po administered as single dose and measured after 14 days; assay type: organism-based; details: in vivo, 336 h, time 14 day
[16] = Toxicity in rat assessed as effect on clinical observations at 1 to 9 mg/kg, po; assay type: organism-based; details: in vivo, dose 1-9 mg/kg
[17] = Toxicity in Sprague-Dawley rat assessed as anogenital staining at 100 mg/kg, po administered as single dose and measured after 14 days; assay type: organism-based; details: in vivo, 336 h, time 14 day
[18] = Toxicity in Sprague-Dawley rat assessed as diarrhea at 100 mg/kg, po administered as single dose and measured after 14 days; assay type: organism-based; details: in vivo, 336 h, time 14 day
[19] = Toxicity in Sprague-Dawley rat assessed as diarrhea at 250 mg/kg, po administered as single dose and measured after 14 days; assay type: organism-based; details: in vivo, 336 h, time 14 day
[20] = Toxicity in Cynomolgus monkey assessed as change in ECG at 100 mg/kg, po administered twice a day; assay type: organism-based, Macaca fascicularis; details: in vivo
[21] = Toxicity in Sprague-Dawley rat assessed as weight loss at 150 mg/kg, po administered as single dose and measured after 14 days; assay type: organism-based; details: in vivo, 336 h, time 14 day
[22] = Toxicity in Cynomolgus monkey assessed as emesis at 100 mg/kg, po administered as single dose; assay type: organism-based, Macaca fascicularis; details: in vivo
[23] = AUC (0 to infinity) in Sprague-Dawley rat at 10 mg/kg, po by reverse phase chromatography; assay type: ADME, organism-based; details: in vivo
[24] = Toxicity in Sprague-Dawley rat assessed as anogenital staining at 90 mg/kg, po administered as single dose and measured after 14 days; assay type: organism-based; details: in vivo, 336 h, time 14 day
[25] = Toxicity in Sprague-Dawley rat assessed as weight loss at 100 mg/kg, po administered as single dose and measured after 14 days; assay type: organism-based; details: in vivo, 336 h, time 14 day
[26] = Toxicity in Sprague-Dawley rat assessed as weight loss at 250 mg/kg, po administered as single dose and measured after 14 days; assay type: organism-based; details: in vivo, 336 h, time 14 day
[27] = AUC (0 to infinity) in female mouse at 1 mg/kg, iv by reverse phase chromatography; assay type: ADME, organism-based; details: in vivo
[28] = Half life in female mouse at 1 mg/kg, iv by reverse phase chromatography; assay type: ADME, organism-based; details: in vivo
[29] = Volume of distribution in female mouse at 1 mg/kg, iv by reverse phase chromatography; assay type: ADME, organism-based; details: in vivo
[30] = Toxicity in rat assessed as effect on respiratory measures at 1 to 9 mg/kg, po; assay type: organism-based; details: in vivo, dose 1-9 mg/kg
[31] = Metabolic stability in cryopreserved human hepatocyte assessed as half life in presence of NADPH; assay type: ADME, cell-based; details: cryopreserved hepatocytes
[32] = Toxicity in Sprague-Dawley rat assessed as lethargy at 150 mg/kg, po administered as single dose and measured after 14 days; assay type: organism-based; details: in vivo, 336 h, time 14 day
[33] = Half life in Sprague-Dawley rat at 1 mg/kg, iv by reverse phase chromatography; assay type: ADME, organism-based; details: in vivo
[34] = Toxicity in Sprague-Dawley rat assessed as eyes and nares staining at 100 mg/kg, po administered as single dose and measured after 14 days; assay type: organism-based; details: in vivo, 336 h, time 14 day
[35] = Clearance in female mouse at 1 mg/kg, iv by reverse phase chromatography; assay type: ADME, organism-based; details: in vivo
[36] = AUC (0 to infinity) in Sprague-Dawley rat at 5 mg/kg, po by reverse phase chromatography; assay type: ADME, organism-based; details: in vivo
[37] = Tmax in Sprague-Dawley rat at 5 mg/kg, po by reverse phase chromatography; assay type: ADME, organism-based; details: in vivo
[38] = Genotoxicity in human Lymphocyte assessed as induction of chromosomal aberration upto 3000 ug/ml; assay type: toxicity, cell-based; details: dose < 3000 µg/ml
[39] = Toxicity in po dosed rat assessed as no observable adverse effect level; assay type: organism-based; details: in vivo
[40] = biological target: hERG potassium channel (KCNH2) (Homo sapiens, UniProt Q12809); assay: Inhibition of hERG potassium channel expressed in HEK cells at 100 uM relative to control; assay type: toxicity, cell-based; details: HEK cells expressing hERG
Chain of hERG potassium channel (KCNH2) (Q12809 whole entry): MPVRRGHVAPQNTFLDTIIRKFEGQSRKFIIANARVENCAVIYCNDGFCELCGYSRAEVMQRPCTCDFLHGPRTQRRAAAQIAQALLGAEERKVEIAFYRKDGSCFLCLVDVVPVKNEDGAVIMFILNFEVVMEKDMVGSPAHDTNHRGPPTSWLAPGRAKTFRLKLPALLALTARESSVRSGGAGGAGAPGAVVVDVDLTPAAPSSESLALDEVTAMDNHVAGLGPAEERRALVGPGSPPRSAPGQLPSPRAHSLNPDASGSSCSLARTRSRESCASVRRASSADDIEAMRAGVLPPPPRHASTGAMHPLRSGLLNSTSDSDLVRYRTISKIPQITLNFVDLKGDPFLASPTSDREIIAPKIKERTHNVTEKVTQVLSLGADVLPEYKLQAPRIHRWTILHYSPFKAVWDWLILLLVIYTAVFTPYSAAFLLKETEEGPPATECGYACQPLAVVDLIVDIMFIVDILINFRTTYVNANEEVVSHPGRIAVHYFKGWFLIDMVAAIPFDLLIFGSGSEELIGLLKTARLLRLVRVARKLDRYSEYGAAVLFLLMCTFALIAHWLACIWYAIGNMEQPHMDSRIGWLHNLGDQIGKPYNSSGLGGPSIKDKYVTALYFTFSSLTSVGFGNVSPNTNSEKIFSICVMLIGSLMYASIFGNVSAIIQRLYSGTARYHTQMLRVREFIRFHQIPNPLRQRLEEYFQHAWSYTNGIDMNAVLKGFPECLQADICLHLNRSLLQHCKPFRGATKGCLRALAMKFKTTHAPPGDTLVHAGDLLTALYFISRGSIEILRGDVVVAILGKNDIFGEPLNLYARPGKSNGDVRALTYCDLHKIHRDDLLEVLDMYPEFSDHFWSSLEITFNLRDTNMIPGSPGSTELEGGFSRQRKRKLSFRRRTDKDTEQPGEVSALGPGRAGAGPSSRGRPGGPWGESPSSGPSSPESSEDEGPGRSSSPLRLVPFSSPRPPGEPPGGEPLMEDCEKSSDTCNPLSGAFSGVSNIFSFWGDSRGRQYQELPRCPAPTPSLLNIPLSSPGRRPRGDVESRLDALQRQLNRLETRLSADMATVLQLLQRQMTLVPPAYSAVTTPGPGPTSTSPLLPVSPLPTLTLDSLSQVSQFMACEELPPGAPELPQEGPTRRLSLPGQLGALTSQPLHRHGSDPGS

[41] = Clearance in Cynomolgus monkey at 1 mg/kg, iv by reverse phase chromatography; assay type: ADME, organism-based, Macaca fascicularis; details: in vivo
[42] = Cmax in Sprague-Dawley rat at 5 mg/kg, po by reverse phase chromatography; assay type: ADME, organism-based; details: in vivo
[43] = Cmax in Sprague-Dawley rat at 10 mg/kg, po by reverse phase chromatography; assay type: ADME, organism-based; details: in vivo
[44] = Cmax in female mouse at 1 mg/kg, iv by reverse phase chromatography; assay type: ADME, organism-based; details: in vivo
[45] = Oral bioavailability in Cynomolgus monkey at 10 mg/kg administered for 7 days by reverse phase chromatography; assay type: ADME, organism-based, Macaca fascicularis; details: in vivo, time 7 day
[46] = Toxicity in Cynomolgus monkey assessed as emesis at 100 mg/kg, po administered twice a day; assay type: organism-based, Macaca fascicularis; details: in vivo
[47] = AUC in Cynomolgus monkey at 10 mg/kg, po administered for 7 days by reverse phase chromatography; assay type: ADME, organism-based, Macaca fascicularis; details: in vivo, time 7 day
[48] = Half life in female mouse at 5 mg/kg, po by reverse phase chromatography; assay type: ADME, organism-based; details: in vivo
[49] = AUC in female mouse at 1 mg/kg, iv by reverse phase chromatography; assay type: ADME, organism-based; details: in vivo
[50] = AUC in female mouse at 5 mg/kg, po by reverse phase chromatography; assay type: ADME, organism-based; details: in vivo
[51] = Oral bioavailability in mouse at 5 mg/kg by reverse phase chromatography; assay type: ADME, organism-based; details: in vivo
[52] = Toxicity in cynomolgus monkey assessed as weight loss at 100 to 500 mg/kg, po administered as single dose; assay type: organism-based, Macaca fascicularis; details: in vivo, dose 100-500 mg/kg

In the case of `C[C@@]1(O)[C@H](O)[C@@H](CO)O[C@H]1c1coc2c(N)ncnc12`, the EC50 (Hepatitis C virus [1]) is reported as 5.4 µM, the Activity [2] is reported as “Non-toxic” and the EC50 (Hepatitis C virus [3]) is reported as 4.7 µM. For the same compound, the Activity [4] was “Non-toxic”, the Drug metabolism [5] was “metabolite_detected” and the Activity [6] was “Non-toxic”. The Activity [7] was “Non-toxic”, the AUC(0-inf) [8] was 8.01 µg·h/mL and the AUC [9] was 4.98 µg·h/mL. The Cmax [10] was 2.51 µg/mL, the half-life [11] was > 1.67 h and the Activity [12] was “Non-toxic”. The Tmax [13] was 0.7 h, the half-life [14] was > 1.67 h and the Activity [15] was “Non-toxic”. For the same compound, the Activity [16] was “Non-toxic”, the Activity [17] was “Non-toxic” and the Activity [18] was “Non-toxic”. For the same compound, the Activity [19] was “Non-toxic”, the Activity [20] was “Non-toxic” and the Activity [21] was “Toxic”. The Activity [22] was “Non-toxic”, the AUC(0-inf) [23] was 5.65 µg·h/mL and the Activity [24] was “Non-toxic”. The Activity [25] was “Non-toxic”, the Activity [26] was “Non-toxic” and the AUC(0-inf) [27] was 1.44 µg·h/mL. The half-life [28] was 22.3 h, the Vd [29] was 22.4 L/kg and the Activity [30] was “Non-toxic”. The half-life [31] was > 1 h, the Activity [32] was “Toxic” and the half-life [33] was 28.4 h. The Activity [34] was “Non-toxic”, the clearance [35] was 0.695 L/h/kg and the AUC(0-inf) [36] was 2.15 µg·h/mL. The Tmax [37] was 0.5 h, the Activity [38] was “Non-toxic” and the NOAEL [39] was ≤ 9 mg/kg. The inhibition at 100 µM [40] was 1.3%, the clearance [41] was 0.513 L/h/kg and the Cmax [42] was 0.593 µg/mL. The Cmax [43] was 1.18 µg/mL, the Cmax [44] was 1.13 µg/mL and the bioavailability [45] was 37.6%. The Activity [46] was “Non-toxic”, the AUC at 168 h [47] was 7.26 µg·h/mL and the half-life [48] was 16.6 h. It also gave an AUC [49] of 0.866 µg·h/mL, an AUC [50] of 3.25 µg·h/mL and a bioavailability [51] of 75%. The Activity [52] was “Non-toxic”.
